Assay results taken from US20250171438A1 (Agios Pharmaceuticals, Inc., priority 2022, published 2025).

biological target: T1, human PAH with the R408W mutation (Homo sapiens, UniProt P00439, R408W); assay: Cell Based Phenylalanine Flux Assay; details: A375 cells expressing human R408W PAH; 24 hrs with compound; 13C-Tyrosine by LC-MS; average where tested multiple times; read-out: AC50
T1 construct: expressed in transfected cells
T1 sequence (P00439 1-452 R408W): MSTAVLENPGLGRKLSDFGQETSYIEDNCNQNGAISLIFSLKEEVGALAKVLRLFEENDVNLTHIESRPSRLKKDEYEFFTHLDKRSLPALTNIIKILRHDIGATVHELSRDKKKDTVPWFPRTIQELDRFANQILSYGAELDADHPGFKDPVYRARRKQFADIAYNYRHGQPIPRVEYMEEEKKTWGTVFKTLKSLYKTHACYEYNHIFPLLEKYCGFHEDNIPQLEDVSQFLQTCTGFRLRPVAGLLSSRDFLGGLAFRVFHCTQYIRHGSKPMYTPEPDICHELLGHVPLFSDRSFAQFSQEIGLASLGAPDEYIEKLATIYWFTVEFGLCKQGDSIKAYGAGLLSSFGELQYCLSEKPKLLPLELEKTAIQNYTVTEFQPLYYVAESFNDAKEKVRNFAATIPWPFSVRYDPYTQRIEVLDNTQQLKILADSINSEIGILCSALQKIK

AC50 [µM]	Compound
> 5	Cc1nnc(CC(=O)N2CCc3[nH]cnc3C2c2nc3ccccc3s2)s1 (stereo not shown)
> 5	O=C(Cc1nccs1)N1CCc2[nH]cnc2C1c1nc2c(F)cccc2s1 (stereo not shown) [listing 1 of 2 here]
> 5	O=C(Cc1nncs1)N1CCc2[nH]cnc2C1c1nc2c(F)cccc2s1 (stereo not shown)
> 5	O=C(Cc1nc(C(F)(F)F)cs1)N1CCc2[nH]cnc2C1c1nc2c(F)cccc2s1 (stereo not shown) [listing 1 of 2 here]
> 5	O=C(CCc1nccs1)N1CCc2nc[nH]c2C1c1nc2cc(Br)ccc2s1 (stereo not shown) [listing 1 of 2 here]
> 5	O=C(Cc1nccs1)N1CCc2[nH]cnc2C1c1nc2ccc(Br)cc2s1 (stereo not shown) [listing 1 of 2 here]
> 5	O=C(Cc1nc(C(F)(F)F)cs1)N1CCc2[nH]cnc2C1c1nc2ccc(F)cc2s1 (stereo not shown) [listing 1 of 2 here]
> 5	O=C(Cc1nccs1)N1CCc2[nH]cnc2C1c1nc2ccc(F)cc2s1 (stereo not shown) [listing 1 of 2 here]
> 5	c1ccc2oc(N3CCc4[nH]cnc4C3c3nc4ccccc4s3)nc2c1 (stereo not shown) [listing 1 of 2 here]
> 5	O=C(c1nc2ccccc2s1)N1CCc2[nH]cnc2C1c1nc2cccc(F)c2s1 (stereo not shown) [listing 1 of 2 here]
> 5	Cc1ncc(C(=O)N2CCc3[nH]cnc3C2c2nc3ccccc3s2)o1 (stereo not shown) [listing 1 of 2 here]
> 5	Cc1ncc(C(=O)N2CCc3[nH]cnc3C2c2nc3ccccc3s2)s1 (stereo not shown) [listing 1 of 2 here]
> 5	Cc1ncsc1C(=O)N1CCc2[nH]cnc2C1c1nc2ccccc2s1 (stereo not shown) [listing 1 of 2 here]
> 5	O=C(c1ncc(Cl)s1)N1CCc2[nH]cnc2C1c1nc2ccc(F)cc2s1 (stereo not shown) [listing 1 of 2 here]
> 5	Cc1nnc(N2CCc3[nH]cnc3C2c2nc3ccccc3s2)o1 (stereo not shown)
> 5	O=C(c1cnn2cc(Cc3ccccc3)ccc12)N1CCc2[nH]cnc2C1c1nc2ccccc2s1 (stereo not shown) [listing 1 of 2 here]
> 5	O=C(c1cnn2cc(Br)ccc12)N1CCc2[nH]cnc2C1c1nc2ccc(F)cc2s1 (stereo not shown) [listing 1 of 2 here]
> 5	O=C(c1cnn2cc(Cl)ccc12)N1CCc2[nH]cnc2C1c1nc2ccc(F)cc2s1 (stereo not shown) [listing 1 of 2 here]
> 5	O=C(c1cc2ccccn2n1)N1CCc2nc[nH]c2C1c1nc2ccccc2s1 (stereo not shown) [listing 1 of 2 here]
> 5	O=C(C1CC1)N1CCc2[nH]cnc2C1c1nc2ccc(F)cc2s1 (stereo not shown) [listing 1 of 2 here]
> 5	O=C(C1CC1)N1CCc2[nH]cnc2C1c1nc2cc(F)ccc2s1 (stereo not shown) [listing 1 of 2 here]
> 5	O=C(c1cnn2cccc(F)c12)N1CCc2[nH]cnc2C1c1nc2c(F)cccc2s1 (stereo not shown) [listing 1 of 2 here]
> 5	O=C(c1cnn2cccc(F)c12)N1CCc2[nH]cnc2C1c1nc2cc(F)ccc2s1 (stereo not shown)
> 5	O=C(c1cnn2ccccc12)N1CCc2[nH]cnc2C1c1nc2ccc(Br)cc2s1 (stereo not shown) [listing 1 of 2 here]
> 5	O=C(C1CC1)N1CCc2[nH]cnc2C1c1nc2ccc(Br)cc2s1 (stereo not shown) [listing 1 of 2 here]
> 5	O=C(c1nccs1)N1CCc2[nH]cnc2C1c1nc2ccc(Cl)cc2s1 (stereo not shown)

AC50 [µM]	Compound
> 5	O=C(c1cnn2ccccc12)N1CCc2[nH]cnc2C1c1nc2ccc(Cl)cc2s1 (stereo not shown)
> 5	O=C(c1n[nH]c2ccccc12)N1CCc2[nH]cnc2C1c1nc2ccc(F)cc2s1 (stereo not shown) [listing 1 of 2 here]
> 5	O=C(c1cnco1)N1CCc2[nH]cnc2C1c1nc2ccc(F)cc2s1 (stereo not shown) [listing 1 of 2 here]
> 5	O=C(c1cncs1)N1CCc2[nH]cnc2C1c1nc2ccc(F)cc2s1 (stereo not shown) [listing 1 of 2 here]
> 5	O=C(c1nncs1)N1CCc2[nH]cnc2C1c1nc2ccc(F)cc2s1 (stereo not shown) [listing 1 of 2 here]
> 5	O=C(c1cnn2cccc(F)c12)N1CCc2[nH]cnc2C1c1nc2ccc(F)cc2s1 (stereo not shown) [listing 1 of 2 here]
> 5	Cc1nnc(C(=O)N2CCc3[nH]cnc3C2c2nc3ccc(F)cc3s2)s1 (stereo not shown) [listing 1 of 2 here]
> 5	Cc1ccc2c(C(=O)N3CCc4[nH]cnc4C3c3nc4ccc(F)cc4s3)cnn2c1 (stereo not shown) [listing 1 of 2 here]
1 to 5	O=C(Cc1nc(C(F)(F)F)cs1)N1CCc2[nH]cnc2C1c1nc2c(F)cccc2s1 (stereo not shown) [listing 2 of 2 here]
1 to 5	O=C(Cc1nccs1)N1CCc2[nH]cnc2C1c1nc2c(F)cccc2s1 (stereo not shown) [listing 2 of 2 here]
1 to 5	Cc1nnc(CC(=O)N2CCc3[nH]cnc3C2c2nc3c(F)cccc3s2)s1 (stereo not shown)
1 to 5	O=C(CCc1nccs1)N1CCc2nc[nH]c2C1c1nc2cc(Br)ccc2s1 (stereo not shown) [listing 2 of 2 here]
1 to 5	O=C(CCc1nccs1)N1CCc2nc[nH]c2C1c1nc2cc(Cl)ccc2s1 (stereo not shown)
1 to 5	O=C(Cc1nc(C(F)(F)F)cs1)N1CCc2[nH]cnc2C1c1nc2cc(F)ccc2s1 (stereo not shown)
1 to 5	O=C(Cc1nccs1)N1CCc2[nH]cnc2C1c1nc2ccc(Br)cc2s1 (stereo not shown) [listing 2 of 2 here]
1 to 5	O=C(Cc1nc(C(F)(F)F)cs1)N1CCc2[nH]cnc2C1c1nc2ccc(F)cc2s1 (stereo not shown) [listing 2 of 2 here]
1 to 5	O=C(Cc1nccs1)N1CCc2[nH]cnc2C1c1nc2ccc(F)cc2s1 (stereo not shown) [listing 2 of 2 here]
> 5	Cc1nnc(CC(=O)N2CCc3[nH]cnc3C2c2nc3ccc(F)cc3s2)s1 (stereo not shown)
> 5	O=C(Cc1nncs1)N1CCc2[nH]cnc2C1c1nc2ccc(F)cc2s1 (stereo not shown)
1 to 5	c1ccc2oc(N3CCc4[nH]cnc4C3c3nc4ccccc4s3)nc2c1 (stereo not shown) [listing 2 of 2 here]
> 5	O=C(c1nc2ccccc2s1)N1CCc2nc[nH]c2C1c1nc2ccc(Br)cc2s1 (stereo not shown)
1 to 5	O=C(c1nc2ccccc2s1)N1CCc2[nH]cnc2C1c1nc2cccc(F)c2s1 (stereo not shown) [listing 2 of 2 here]
1 to 5	O=C(c1cnc(COc2ccccc2)s1)N1CCc2[nH]cnc2C1c1nc2ccccc2s1 (stereo not shown)
> 5	O=C(c1cnc(Br)s1)N1CCc2[nH]cnc2C1c1nc2ccccc2s1 (stereo not shown)
1 to 5	Cc1ncc(C(=O)N2CCc3[nH]cnc3C2c2nc3ccccc3s2)o1 (stereo not shown) [listing 2 of 2 here]
1 to 5	Cc1ncc(C(=O)N2CCc3[nH]cnc3C2c2nc3ccccc3s2)s1 (stereo not shown) [listing 2 of 2 here]

AC50 [µM]	Compound
1 to 5	Cc1ncsc1C(=O)N1CCc2[nH]cnc2C1c1nc2ccccc2s1 (stereo not shown) [listing 2 of 2 here]
1 to 5	O=C(c1ncc(Cl)s1)N1CCc2[nH]cnc2C1c1nc2cccc(F)c2s1 (stereo not shown)
1 to 5	O=C(c1ncc(Cl)s1)N1CCc2[nH]cnc2C1c1nc2ccc(F)cc2s1 (stereo not shown) [listing 2 of 2 here]
1 to 5	O=C(c1cnn2cc(Cc3ccccc3)ccc12)N1CCc2[nH]cnc2C1c1nc2ccccc2s1 (stereo not shown) [listing 2 of 2 here]
1 to 5	O=C(c1cnn2cc(Br)ccc12)N1CCc2[nH]cnc2C1c1nc2ccc(F)cc2s1 (stereo not shown) [listing 2 of 2 here]
1 to 5	O=C(c1cnn2cc(Cl)ccc12)N1CCc2[nH]cnc2C1c1nc2ccc(F)cc2s1 (stereo not shown) [listing 2 of 2 here]
1 to 5	O=C(c1cc2ccccn2n1)N1CCc2nc[nH]c2C1c1nc2ccccc2s1 (stereo not shown) [listing 2 of 2 here]
1 to 5	O=C(C1CC1)N1CCc2[nH]cnc2C1c1nc2ccc(F)cc2s1 (stereo not shown) [listing 2 of 2 here]
1 to 5	O=C(C1CC1)N1CCc2[nH]cnc2C1c1nc2cc(F)ccc2s1 (stereo not shown) [listing 2 of 2 here]
1 to 5	O=C(c1nccs1)N1CCc2[nH]cnc2C1c1nc2c(Br)cccc2s1 (stereo not shown)
1 to 5	O=C(c1n[nH]c2ccccc12)N1CCc2[nH]cnc2C1c1nc2c(F)cccc2s1 (stereo not shown)
1 to 5	O=C(c1cnn2cccc(F)c12)N1CCc2[nH]cnc2C1c1nc2c(F)cccc2s1 (stereo not shown) [listing 2 of 2 here]
> 5	Fc1ccc2sc(CN3CCc4[nH]cnc4C3c3nc4cc(F)ccc4s3)nc2c1 (stereo not shown)
1 to 5	O=C(c1nccs1)N1CCc2[nH]cnc2C1c1nc2ccc(Br)cc2s1 (stereo not shown)
1 to 5	O=C(c1cnn2ccccc12)N1CCc2[nH]cnc2C1c1nc2ccc(Br)cc2s1 (stereo not shown) [listing 2 of 2 here]
1 to 5	O=C(C1CC1)N1CCc2[nH]cnc2C1c1nc2ccc(Br)cc2s1 (stereo not shown) [listing 2 of 2 here]
1 to 5	O=C(c1n[nH]c2ccccc12)N1CCc2[nH]cnc2C1c1nc2ccc(F)cc2s1 (stereo not shown) [listing 2 of 2 here]
1 to 5	O=C(c1cnco1)N1CCc2[nH]cnc2C1c1nc2ccc(F)cc2s1 (stereo not shown) [listing 2 of 2 here]
1 to 5	O=C(c1cncs1)N1CCc2[nH]cnc2C1c1nc2ccc(F)cc2s1 (stereo not shown) [listing 2 of 2 here]
1 to 5	O=C(c1nncs1)N1CCc2[nH]cnc2C1c1nc2ccc(F)cc2s1 (stereo not shown) [listing 2 of 2 here]
1 to 5	O=C(c1cnn2cccc(F)c12)N1CCc2[nH]cnc2C1c1nc2ccc(F)cc2s1 (stereo not shown) [listing 2 of 2 here]
1 to 5	Cc1nnc(C(=O)N2CCc3[nH]cnc3C2c2nc3ccc(F)cc3s2)s1 (stereo not shown) [listing 2 of 2 here]
1 to 5	Cc1ccc2c(C(=O)N3CCc4[nH]cnc4C3c3nc4ccc(F)cc4s3)cnn2c1 (stereo not shown) [listing 2 of 2 here]
1 to 5	O=C(c1ncn2ccccc12)N1CCc2[nH]cnc2C1c1nc2ccc(F)cc2s1 (stereo not shown)
